Reference: PubChem BioAssay AID248 (DTP/NCI, 2004)
Values joined by “and” are separate entries in the source; they are usually repeats but may differ in a detail not shown here. Equal entries are not always repeated. Inconclusive results and toxic doses are left out. Rule as the data show it: active = T/C of 150% or more; inactive = T/C below 125%.

Tested on: L1210 leukemia ip in BDF1 mice, survival T/C
Assay: NCI In Vivo Anticancer Drug Screen. Data for tumor model L1210 Leukemia (intraperitoneal) in B6D2F1 (BDF1) mice
Details: endpoint: mean survival time, higher = longer survival
Procedure, shortened: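 Read-out is survival time, reported as the treated-group measurement over the vehicle-control measurement.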

[1] = dose: 100.0 mg/kg/injection, schedule: Q04DX003 (ip), vehicle: saline
[2] = dose: 200.0 mg/kg/injection, schedule: Q04DX003 (ip), vehicle: saline
[3] = dose: 100.0 mg/kg/injection, schedule: Q01DX001 (ip), vehicle: carboxymethylcellulose (CMC)
[4] = dose: 200.0 mg/kg/injection, schedule: Q01DX001 (ip), vehicle: carboxymethylcellulose (CMC)
[5] = dose: 400.0 mg/kg/injection, schedule: Q01DX001 (ip), vehicle: carboxymethylcellulose (CMC)
[6] = dose: 100.0 mg/kg/injection, schedule: Q01DX001 (ip), vehicle: saline
[7] = dose: 200.0 mg/kg/injection, schedule: Q01DX001 (ip), vehicle: saline
[8] = dose: 400.0 mg/kg/injection, schedule: Q01DX001 (ip), vehicle: saline
[9] = dose: 100.0 mg/kg/injection, schedule: Q04DX003 (ip), vehicle: Klucel (hydroxypropylcellulose) (HPC)
[10] = dose: 200.0 mg/kg/injection, schedule: Q04DX003 (ip), vehicle: Klucel (hydroxypropylcellulose) (HPC)
[11] = dose: 400.0 mg/kg/injection, schedule: Q04DX003 (ip), vehicle: Klucel (hydroxypropylcellulose) (HPC)
[12] = dose: 100.0 mg/kg/injection, schedule: Q01DX001 (ip), vehicle: saline with Tween-80
[13] = dose: 100.0 mg/kg/injection, schedule: Q01DX009 (ip), vehicle: Klucel (hydroxypropylcellulose) (HPC)
[14] = dose: 200.0 mg/kg/injection, schedule: Q01DX009 (ip), vehicle: Klucel (hydroxypropylcellulose) (HPC)
[15] = dose: 400.0 mg/kg/injection, schedule: Q01DX009 (ip), vehicle: Klucel (hydroxypropylcellulose) (HPC)
[16] = dose: 50.0 mg/kg/injection, schedule: Q01DX009 (ip), vehicle: saline with Tween-80
[17] = dose: 100.0 mg/kg/injection, schedule: Q01DX009 (ip), vehicle: saline with Tween-80
[18] = dose: 200.0 mg/kg/injection, schedule: Q01DX009 (ip), vehicle: saline with Tween-80

Measured: T/C

[Cl][Nd]([Cl])[Cl]
inactive: dose: 12.5 mg/kg/injection, schedule: Q01DX009 (ip), vehicle: saline 98 % of control | dose: 25.0 mg/kg/injection, schedule: Q01DX009 (ip), vehicle: saline 87 % of control | dose: 50.0 mg/kg/injection, schedule: Q01DX009 (ip), vehicle: saline 93 % of control and 91 % of control | [1] 100 % of control | dose: 200.0 mg/kg/injection, schedule: Q01DX009 (ip), vehicle: saline 86 % of control | [2] 100 % of control

C[N+]1(C2CCC3CCC2C3=O)CCCC1 (stereo not drawn)
inactive: dose: 75.0 mg/kg/injection, schedule: Q01DX001 (ip), vehicle: saline 97 % of control | dose: 150.0 mg/kg/injection, schedule: Q01DX001 (ip), vehicle: saline 97 % of control

CCOP(=O)(Nc1ccc2c(c1)C(O)c1ccccc1-2)OCC (stereo not drawn)
inactive: dose: 50.0 mg/kg/injection, schedule: Q01DX001 (ip), vehicle: carboxymethylcellulose (CMC) 100 % of control | [3] 94 % of control | [4] 103 % of control | [5] 103 % of control

N#CCC(=O)NCCc1ccccn1
inactive: dose: 25.0 mg/kg/injection, schedule: Q04DX002 (ip), vehicle: saline with Tween-80 93 % of control | dose: 50.0 mg/kg/injection, schedule: Q04DX002 (ip), vehicle: saline with Tween-80 97 % of control | dose: 100.0 mg/kg/injection, schedule: Q04DX002 (ip), vehicle: saline with Tween-80 98 % of control and 101 % of control

O=C(CBr)c1cc(-c2ccc(Cl)c(Cl)c2)nc2c(Cl)cc(Cl)cc12
inactive: [6] 94 % of control | [7] 95 % of control | [8] 94 % of control

Cc1cc(C)c(C(=O)CBr)c(C)c1
inactive: [3] 112 % of control | [6] 101 % of control | [4] 106 % of control | [7] 101 % of control | [5] 101 % of control | [8] 110 % of control

COc1cc(Br)c(CC(=O)c2cn(C(=O)Cc3cc(OC)c(OC)cc3Br)c3ccc(Br)cc23)cc1OC
inactive: dose: 50.0 mg/kg/injection, schedule: Q01DX001 (ip), vehicle: saline 106 % of control | [6] 96 % of control | [7] 102 % of control | [8] 96 % of control

NC(=O)c1c(Cl)cccc1Cl
inactive: [9] 111 % of control | [10] 101 % of control | [11] 101 % of control

O=P(c1cccc(C(F)(F)F)c1)(c1cccc(C(F)(F)F)c1)c1cccc(C(F)(F)F)c1.O=P(c1cccc(C(F)(F)F)c1)(c1cccc(C(F)(F)F)c1)c1cccc(C(F)(F)F)c1.[Cl][Sn]([Cl])([Cl])[Cl]
inactive: dose: 100.0 mg/kg/injection, schedule: Q04DX002 (ip), vehicle: Klucel (hydroxypropylcellulose) (HPC) 100 % of control | dose: 200.0 mg/kg/injection, schedule: Q04DX002 (ip), vehicle: Klucel (hydroxypropylcellulose) (HPC) 96 % of control | dose: 400.0 mg/kg/injection, schedule: Q04DX002 (ip), vehicle: Klucel (hydroxypropylcellulose) (HPC) 86 % of control

CN(C)/N=N\c1nc[nH]c1C(=O)NC1CCCCC1
inactive: dose: 10.0 mg/kg/injection, schedule: Q01DX001 (ip), vehicle: saline with Tween-80 100 % of control | dose: 20.0 mg/kg/injection, schedule: Q01DX001 (ip), vehicle: saline with Tween-80 94 % of control | dose: 40.0 mg/kg/injection, schedule: Q01DX001 (ip), vehicle: saline with Tween-80 96 % of control | dose: 75.0 mg/kg/injection, schedule: Q01DX009 (ip), vehicle: saline with Tween-80 98 % of control | dose: 150.0 mg/kg/injection, schedule: Q01DX009 (ip), vehicle: saline with Tween-80 109 % of control | dose: 300.0 mg/kg/injection, schedule: Q01DX009 (ip), vehicle: saline with Tween-80 101 % of control

O=C(COc1ccc(Cl)c(Cl)c1)Nc1ccc[n+](CC(=O)c2cccc(S(=O)(=O)F)c2)c1
inactive: dose: 25.0 mg/kg/injection, schedule: Q01DX001 (ip), vehicle: saline with Tween-80 96 % of control | dose: 50.0 mg/kg/injection, schedule: Q01DX001 (ip), vehicle: saline with Tween-80 98 % of control | [12] 107 % of control

COC(=O)C(Br)c1cccc(OC)c1 (stereo not drawn)
inactive: dose: 100.0 mg/kg/injection, schedule: Q01DX009 (ip), vehicle: saline sonified 100 % of control | dose: 100.0 mg/kg/injection, schedule: Q04DX003 (ip), vehicle: saline sonified 97 % of control | dose: 200.0 mg/kg/injection, schedule: Q01DX009 (ip), vehicle: saline sonified 120 % of control | dose: 200.0 mg/kg/injection, schedule: Q04DX003 (ip), vehicle: saline sonified 101 % of control | dose: 400.0 mg/kg/injection, schedule: Q01DX009 (ip), vehicle: saline sonified 105 % of control | dose: 400.0 mg/kg/injection, schedule: Q04DX003 (ip), vehicle: saline sonified 101 % of control

O=[N+]([O-])c1ccc2c(c1)C(C(Cl)(Cl)Cl)OC(C(Cl)(Cl)Cl)O2 (stereo not drawn)
inactive: [13] 95 % of control | [9] 96 % of control | [14] 95 % of control | [10] 93 % of control | [15] 95 % of control | [11] 95 % of control

OCC1OC(n2c(Cl)nc3ccccc32)C(O)C1O (stereo not drawn)
inactive: [6] 97 % of control | [7] 103 % of control | [8] 103 % of control

Nc1cccc2c1-c1ccccc1/C2=N\O
inactive: [3] 97 % of control | [4] 105 % of control | [5] 103 % of control

COc1cc(C)ccc1Cl
inactive: [16] 107 % of control | [17] 113 % of control | [18] 110 % of control

CCC1(Sc2ncnc3c2ncn3C2OC(CO)C(O)C2O)C(=O)NC(=O)NC1=O (stereo not drawn)
inactive: [6] 114 % of control | [7] 111 % of control | [8] 120 % of control

COC(=O)C(=[N+]=[N-])C(=O)OC
inactive: dose: 100.0 mg/kg/injection, schedule: Q01DX001 (ip), vehicle: Klucel (hydroxypropylcellulose) (HPC) 92 % of control | [13] 98 % of control | [9] 102 % of control | dose: 200.0 mg/kg/injection, schedule: Q01DX001 (ip), vehicle: Klucel (hydroxypropylcellulose) (HPC) 92 % of control | [14] 98 % of control | [10] 101 % of control | dose: 400.0 mg/kg/injection, schedule: Q01DX001 (ip), vehicle: Klucel (hydroxypropylcellulose) (HPC) 93 % of control | [15] 107 % of control | [11] 104 % of control

CSc1ccc(C(O)Cc2ccc([N+](=O)[O-])cc2)cc1 (stereo not drawn)
inactive: [13] 96 % of control | [9] 94 % of control | [14] 97 % of control | [10] 96 % of control | [15] 100 % of control | [11] 98 % of control

CC1CCN(C(=O)NCCCCCCNC(=O)N2CCC(C)CC2)CC1
inactive: [13] 100 % of control | [14] 97 % of control | [15] 90 % of control

CCOC(=O)/C(Cc1ccc2c(c1)OCO2)=N\O
inactive: [1] 96 % of control | [2] 97 % of control | dose: 400.0 mg/kg/injection, schedule: Q04DX003 (ip), vehicle: saline 103 % of control

O=C1c2ccccc2C(=O)c2c(O)c3c(c(O)c21)CCCC3OC1OC(CO)C(O)C(O)C1O (stereo not drawn)
inactive: [8] 91 % of control

O=C(CCCN1CCC2(CC1)OC(=O)N(c1ccccc1)C2=O)c1ccc(F)cc1
inactive: [9] 89 % of control | [10] 106 % of control

NC1CC2(CCC1=O)c1ccccc1-c1ccccc12 (stereo not drawn)
inactive: [6] 101 % of control | [8] 104 % of control

CCC(=O)Oc1c(CC=C(C)C)c(OC(=O)CC)c2ccccc2c1OC(=O)CC
inactive: [13] 93 % of control | [9] 90 % of control | [14] 93 % of control | [10] 94 % of control | [15] 88 % of control | [11] 96 % of control

CC(=O)Nc1ccc(/C=N/NC(=O)CNC(=O)Nc2cccc(Cl)c2Cl)cc1
inactive: [16] 121 % of control | [17] 90 % of control | [18] 88 % of control

CNc1ncnc(N(C)C)c1[N+](=O)[O-]
inactive: dose: 50.0 mg/kg/injection, schedule: Q01DX009 (ip), vehicle: Klucel (hydroxypropylcellulose) (HPC) 102 % of control | [13] 98 % of control | [14] 109 % of control

CCOCCC(=O)NCc1ccccc1
inactive: [12] 100 % of control | dose: 200.0 mg/kg/injection, schedule: Q01DX001 (ip), vehicle: saline with Tween-80 104 % of control | dose: 400.0 mg/kg/injection, schedule: Q01DX001 (ip), vehicle: saline with Tween-80 106 % of control
